# Data reported in US11466286B2, “Methods and compositions for conferring and/or enhancing herbicide tolerance using protoporphyrinogen oxidase or variant thereof” (FarmHannong Co., Ltd., priority 2016, dated 2022).
# What was measured:
# [1] = system: CyPPO13 (Synechococcus sp. JA-3-3Ab PPO, SEQ ID NO: 4) variant F373M, MBP fusion; test: PPO inhibition assay; assay type: biochemical; settings: herbicide 0-5,000 nM, 50 μM substrate
# [2] = system: CyPPO13 (Synechococcus sp. JA-3-3Ab PPO, SEQ ID NO: 4) variant F373C, MBP fusion; test: PPO inhibition assay; assay type: biochemical; settings: herbicide 0-5,000 nM, 50 μM substrate
# Procedure: (§1) The enzyme activities of PPO protein and PPO protein variants were examined, and inhibition assay by PPO-inhibiting herbicides was conducted. It was confirmed that the PPO protein has low water-solubility, but in case of being expressed as a fusion protein with MBP (maltose binding protein) (MBP-PPO), the PPO protein is able to be stably expressed as water-soluble form. Therefore, the wild type and variant proteins which were expressed in the form of fusion protein with MBP were used in the present test (refer to FIG. 4).
# (§2) At first, a substrate of PPO protein, Protoporphyrinogen IX was synthesized. This process was performed in the space where nitrogen gas is streamed. 6 mg of protoporphyrin IX was dissolved in 20% (v/v) EtOH 20 ml, and stirred under dark condition for 30 minutes. The obtained protoporphyrinogen IX solution was put into a 15 ml screw tube in an amount of 800 and flushed with nitrogen gas for 5 minutes. To this, 1 g of sodium amalgam was added and vigorous shaking was performed for 2 minutes. The lid was open to exhaust hydrogen gas in the tube. Thereafter, the lid was closed and incubated for 3 minutes. The […] was filtered using syringe and cellulose membrane filter. To 600 μl of the obtained […], 2M MOPS [3-(N-morpholino)propanesulfonic acid] was added in an amount of approximately 300 thereby adjusting pH to 8.0. To determine the enzyme activity of PPO protein, a reaction mixture was prepared with the following composition (based on 10 ml): 50 mM Tris-Cl (pH 8.0); 50 mM NaCl; 0.04% (v/v) Tween 20; 40 mM glucose (0.072 g); 5 units glucose oxidase (16.6 mg); and 10 units catalase (1 μl).
# (§3) Two hundred microliters (200 μl) of reaction mixture containing a purified PPO protein were placed in 96 well plates, and preincubated for 30 min at room temperature to reduce the oxygen concentration by the reaction of glucose oxidase-catalase. The mineral oil was layered and then the reaction was initiated by adding the substrate, […], to a final concentration of 50 μM. The reaction proceeded at room temperature for 30 min and the fluorescence of protoporphyrin IX was measured using Microplate reader (Sense, Hidex) (excitation: 405 nm; emission: 633 nm). To calculate the PPO enzyme activity, protoporphyrinogen IX solution was kept open in the air to oxidize the solution (overnight). To this, 2.7N HCl was added, and the absorbance at 408 nm was measured. A standard curve was generated using standard protoporphyrin IX, and the PPO activity was measured by calibration of protoporphyrin IX using the standard curve of protoporphyrin IX.
# (§4) The final concentration of each herbicide was as follows: […]
# [3] = system: CyPPO13 (Synechococcus sp. JA-3-3Ab PPO, SEQ ID NO: 4) variant F373H, MBP fusion; test: PPO inhibition assay; assay type: biochemical; settings: herbicide 0-5,000 nM, 50 μM substrate
# Procedure: as §1, §2, §3, §4
# [4] = system: CyPPO13 (Synechococcus sp. JA-3-3Ab PPO, SEQ ID NO: 4) variant F373I, MBP fusion; test: PPO inhibition assay; assay type: biochemical; settings: herbicide 0-5,000 nM, 50 μM substrate
# Procedure: as §1, §2, §3, §4
# [5] = system: CyPPO13 (Synechococcus sp. JA-3-3Ab PPO, SEQ ID NO: 4) variant F373L, MBP fusion; test: PPO inhibition assay; assay type: biochemical; settings: herbicide 0-5,000 nM, 50 μM substrate
# Procedure: as §1, §2, §3, §4
# [6] = system: CyPPO13 (Synechococcus sp. JA-3-3Ab PPO, SEQ ID NO: 4) variant F373N, MBP fusion; test: PPO inhibition assay; assay type: biochemical; settings: herbicide 0-5,000 nM, 50 μM substrate
# Procedure: as §1, §2, §3, §4
# [7] = system: CyPPO13 (Synechococcus sp. JA-3-3Ab PPO, SEQ ID NO: 4) variant F373T, MBP fusion; test: PPO inhibition assay; assay type: biochemical; settings: herbicide 0-5,000 nM, 50 μM substrate
# Procedure: as §1, §2, §3, §4
# [8] = system: CyPPO13 (Synechococcus sp. JA-3-3Ab PPO, SEQ ID NO: 4) variant F373V, MBP fusion; test: PPO inhibition assay; assay type: biochemical; settings: herbicide 0-5,000 nM, 50 μM substrate
# Procedure: as §1, §2, §3, §4
# [9] = system: BT3 (ΔPPO) E. coli with CyPPO10m-6 (E225G, G258S, Q266L, T336I, V356F, F360M, A364D, R406G, W419R; SEQ ID NO: 131); test: Growth of BT3 with error-prone PCR mutant of CyPPO10; assay type: cell-based; settings: up to 200 μM herbicide
# [10] = system: wild type A. thaliana (Col-0 ecotype); test: Herbicide injury of A. thaliana plants; assay type: in vivo, Arabidopsis thaliana; settings: 1 μM spray, within 7 days
# Procedure: For comparison, the same test was conducted using the wild type A. thaliana (Col-0 ecotype).
# [11] = system: Kwangan soybean (non-transformed); test: Herbicide tolerance of soybean; assay type: in vivo; settings: 5 μM painted on leaves, 7 days
# [12] = system: soybean transformed with CyPPO10 A167L+F360M; test: Herbicide tolerance of soybean; assay type: in vivo
# [13] = system: A. thaliana transformants with CyPPO10 or CyPPO13 or variants; test: Herbicide tolerance of A. thaliana transformants (T1); assay type: in vivo, Arabidopsis thaliana; settings: 1 μM spray
# From the text: A. thaliana was transformed with a binary vector having ORF of a selectable marker, bar gene (glufosinate-tolerant), and that of each encoding gene of CyPPO10 or CyPPO13 variants. The transgenic plant was examined for cross-tolerance towards glufosinate and PPO-inhibiting herbicides. The bar gene was also used to examine whether the transgene was stably inherited during generations. NOS promoter and E9 terminator were used for bar gene expression.
# [14] = system: A. thaliana T3 lines with CyPPO10 wild type or mutants (F360M, F360I, F360L, F360C, A167C), CyPPO13 wild type or mutants (F373M, F373C, F373I, A177C …); test: Seed germination of A. thaliana transformants on herbicide media; assay type: in vivo, Arabidopsis thaliana; settings: 7 days
smiles,measurement,setting,value
COC(=O)CCNC(=O)C(C)Sc1cc(-n2c(=O)cc(C(F)(F)F)n(C)c2=O)c(F)cc1Cl (stereo not shown) [Tiafenacil],IC50,[1],0.056 µM
same,IC50,[2],0.212 µM
same,IC50,[3],0.114 µM
same,IC50,[4],0.135 µM
same,IC50,[5],0.141 µM
same,IC50,[6],0.04 µM
same,IC50,[7],0.818 µM
same,IC50,[8],0.339 µM
same,cell viability,[9],cell viability similar to that of cells with wild type CyPPO10
same,plant damage,[10],completely died
same,leaf damage,[11],severe damage
same,leaf damage,"[12]; T0, 15 μM painted on leaves",no damage
same,damage level,"[12]; T1, 25 μM tiafenacil spray, 5 days",no damage
same,plant damage,[13],no damage
same,seed germination,[14]; 25 μM glufosinate+30 nM tiafenacil+40 nM saflufenacil,germinated
same,seed germination,[14]; 25 μM glufosinate+70 nM tiafenacil,germinated
